Experimental data: US11000033B2, “Ketone or oxime compound, and herbicide” (NISSAN CHEMICAL CORPORATION, priority 2014, dated 2021)

What was measured:
Format in all cases: in vivo
[1] = tested on: Echinochloa oryzacola Vasing.; assay: Test Example 2: herbicidal activity, application during weed generation in submerged conditions (symbol A); conditions: Table 23; application herbicide amount 320 g/ha; grade 0-5 by criteria of Test Example 1
Procedure, shortened: (§1)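 Scoring of herbicidal effect took place 3 weeks after treatment, using the criteria of the earlier test. Treatment was water-surface application of diluted emulsifiable compound at a set dose. Plants were at one- to two-leaf stage in submerged alluvial soil (4 cm depth), greenhouse 25-30° C.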

[2] = tested on: Scirpus juncoides; assay: Test Example 2: herbicidal activity, application during weed generation in submerged conditions (symbol B); conditions: Table 23; application herbicide amount 320 g/ha; grade 0-5 by criteria of Test Example 1
Procedure, shortened: as §1

[3] = tested on: directly sowed rice plant; assay: Test Example 3: effect on crop by foliage application, Wagner pot (symbol b); conditions: application herbicide amount 320 g/ha
Procedure, shortened: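 Plants are raised from seed in flooded paddy conditions: water stands 0.1–0.5 cm over alluvial soil, and the pot is kept in a greenhouse at 25–30 °C. Species sown are barnyardgrass (E. crus-galli var. crus-galli), Leptochloa chinensis, Cyperus difformis and rice.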

[4] = tested on: Avena fatua; assay: Test Example 4: herbicidal effect by soil treatment (symbol I); conditions: application herbicide amount 320 g/ha
Procedure, shortened: (§2)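 Seeds were sown in sterilized diluvial soil, covered with about 1.5 cm of soil, and the soil surface was sprayed with a water-diluted emulsion of the compound at a predetermined rate. Plants grew in a greenhouse at 25° C. to 30° C.; effects were scored visually 3 weeks after application.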

[5] = tested on: Lolium multiflorum Lam.; assay: Test Example 4: herbicidal effect by soil treatment (symbol K); conditions: application herbicide amount 320 g/ha
Procedure, shortened: as §2

[6] = tested on: Apera spica-venti; assay: Test Example 4: herbicidal effect by soil treatment (symbol L); conditions: application herbicide amount 320 g/ha
Procedure, shortened: as §2

[7] = tested on: Amaranthus retroflexus; assay: Test Example 4: herbicidal effect by soil treatment (symbol N); conditions: application herbicide amount 320 g/ha
Procedure, shortened: as §2

[8] = tested on: soybean; assay: Test Example 4: effect on crop by soil treatment (symbol d); conditions: application herbicide amount 320 g/ha
Procedure, shortened: (§3)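 Crop seeds, among them rice, wheat, beet and rapeseed, were sown in sterilized diluvial soil and covered with about 1.5 cm of soil. Boxes were kept in a greenhouse at 25° C. to 30° C. for plant growth.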

[9] = tested on: rice; assay: Test Example 4: effect on crop by soil treatment (symbol b); conditions: application herbicide amount 320 g/ha
Procedure, shortened: as §3

[10] = tested on: wheat; assay: Test Example 4: effect on crop by soil treatment (symbol e); conditions: application herbicide amount 320 g/ha
Procedure, shortened: as §3

[11] = tested on: rapeseed; assay: Test Example 4: effect on crop by soil treatment (symbol g); conditions: application herbicide amount 320 g/ha
Procedure, shortened: as §3

[12] = tested on: Abutilon theophrasti; assay: Test Example 5: herbicidal effect by foliage application, plastic box (symbol M); conditions: 320 g/ha, 3 weeks after application
Procedure, shortened: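 Effect is rated 3 weeks after a foliar spray of water-diluted emulsion concentrate at a predetermined herbicide amount. Plants had grown 14 days in a 25° C. to 30° C. greenhouse from seed in sterilized diluvial soil.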

[13] = tested on: rice plant; assay: Test Example 5: effect on crop by foliage application, plastic box (symbol b); conditions: 320 g/ha, 3 weeks after application
Procedure, shortened: (§4)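 Greenhouse test at 25° C. to 30° C. Seeds of crops and weeds were spot-sown in boxes of sterilized diluvial soil under roughly 1.5 cm soil cover, then grown for foliage treatment.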

[14] = tested on: wheat; assay: Test Example 5: effect on crop by foliage application, plastic box (symbol e); conditions: 320 g/ha, 3 weeks after application
Procedure, shortened: as §4

[15] = tested on: beet; assay: Test Example 5: effect on crop by foliage application, plastic box (symbol f); conditions: 320 g/ha, 3 weeks after application
Procedure, shortened: as §4

[16] = tested on: rapeseed; assay: Test Example 5: effect on crop by foliage application, plastic box (symbol g); conditions: 320 g/ha, 3 weeks after application
Procedure, shortened: as §4

Compound | Herbicidal effect grade, A: Echinochloa oryzacola Vasing. [1] | Herbicidal effect grade, B: Scirpus juncoides [2] | effect on crop b (directly sowed rice plant), grade 0-5 [3] | I: Avena fatua, herbicidal effect grade [4] | K: Lolium multiflorum Lam., herbicidal effect grade [5] | L: Apera spica-venti, herbicidal effect grade [6] | N: Amaranthus retroflexus, herbicidal effect grade [7] | d: soybean, effect on crop grade [8] | b: directly sowed rice plant, effect on crop grade [9] | e: wheat, effect on crop grade [10] | g: rapeseed, effect on crop grade [11] | M: Abutilon theophrasti, herbicidal effect (criteria of Test Example 1) [12] | b: directly sowed rice plant, effect on crop (criteria of Test Example 1) [13] | e: wheat, effect on crop (criteria of Test Example 1) [14] | f: beet, effect on crop (criteria of Test Example 1) [15] | g: rapeseed, effect on crop (criteria of Test Example 1) [16] | also measured
CON=C(C)CC1CC(O)=C(c2c(C)cc(-c3ccc(Cl)cc3)cc2OC)C1=O (centres unmarked) [6-077, 2-(4′-chloro-3-methoxy-5-methyl-[1,1′-biphenyl]-4-yl)-3-hydroxy-5-{2-(methoxyimino)propyl}cyclopent-2-enone] | 5 (Herbicidal ratio of 90% or more (almost completely withered)) | 4 (Herbicidal ratio of 70% or higher and lower than 90%) | 5 (Herbicidal ratio of 90% or more (almost completely withered)) | 4 (Herbicidal ratio of 70% or higher and lower than 90%) | 5 (Herbicidal ratio of 90% or more (almost completely withered)) | 5 (Herbicidal ratio of 90% or more (almost completely withered)) | 5 (Herbicidal ratio of 90% or more (almost completely withered)) | 0 (Herbicidal ratio of 5% or lower (almost no effect)) | 5 (Herbicidal ratio of 90% or more (almost completely withered)) | 0 (Herbicidal ratio of 5% or lower (almost no effect)) | 4 (Herbicidal ratio of 70% or higher and lower than 90%) | 5 (Herbicidal ratio of 90% or more (almost completely withered)) | 5 (Herbicidal ratio of 90% or more (almost completely withered)) | 5 (Herbicidal ratio of 90% or more (almost completely withered)) | 4 (Herbicidal ratio of 70% or higher and lower than 90%) | 5 (Herbicidal ratio of 90% or more (almost completely withered)) | –
CON=C(C)CC1CC(OC(=O)COc2ccccc2)=C(c2c(C)cc(-c3ccc(Cl)cc3)cc2OC)C1=O (centres unmarked) [6-079] | 3 (Herbicidal ratio of 40% or higher and lower than 70%) | 2 (Herbicidal ratio of 20% or higher and lower than 40%) | 5 (Herbicidal ratio of 90% or more (almost completely withered)) | 0 (Herbicidal ratio of 5% or lower (almost no effect)) | 5 (Herbicidal ratio of 90% or more (almost completely withered)) | 5 (Herbicidal ratio of 90% or more (almost completely withered)) | 4 (Herbicidal ratio of 70% or higher and lower than 90%) | 0 (Herbicidal ratio of 5% or lower (almost no effect)) | 3 (Herbicidal ratio of 40% or higher and lower than 70%) | 3 (Herbicidal ratio of 40% or higher and lower than 70%) | 0 (Herbicidal ratio of 5% or lower (almost no effect)) | 4 (Herbicidal ratio of 70% or higher and lower than 90%) | 5 (Herbicidal ratio of 90% or more (almost completely withered)) | 5 (Herbicidal ratio of 90% or more (almost completely withered)) | 0 (Herbicidal ratio of 5% or lower (almost no effect)) | 4 (Herbicidal ratio of 70% or higher and lower than 90%) | –
CON=C(C)CC1CC(OC(=O)CCCC(C)=O)=C(c2c(C)cc(-c3ccc(Cl)cc3)cc2C)C1=O (centres unmarked) [6-080] | 5 (Herbicidal ratio of 90% or more (almost completely withered)) | 4 (Herbicidal ratio of 70% or higher and lower than 90%) | 5 (Herbicidal ratio of 90% or more (almost completely withered)) | 0 (Herbicidal ratio of 5% or lower (almost no effect)) | 5 (Herbicidal ratio of 90% or more (almost completely withered)) | 5 (Herbicidal ratio of 90% or more (almost completely withered)) | 1 (Herbicidal ratio of 5% or higher and lower than 20%) | 0 (Herbicidal ratio of 5% or lower (almost no effect)) | 0 (Herbicidal ratio of 5% or lower (almost no effect)) | 0 (Herbicidal ratio of 5% or lower (almost no effect)) | 0 (Herbicidal ratio of 5% or lower (almost no effect)) | 4 (Herbicidal ratio of 70% or higher and lower than 90%) | 5 (Herbicidal ratio of 90% or more (almost completely withered)) | 5 (Herbicidal ratio of 90% or more (almost completely withered)) | 0 (Herbicidal ratio of 5% or lower (almost no effect)) | 3 (Herbicidal ratio of 40% or higher and lower than 70%) | –
CON=C(C)CC1CC(OCOC(=O)c2ccccc2)=C(c2c(C)cc(-c3ccc(Cl)cc3)cc2C)C1=O (centres unmarked) [6-083] | 5 (Herbicidal ratio of 90% or more (almost completely withered)) | 3 (Herbicidal ratio of 40% or higher and lower than 70%) | 5 (Herbicidal ratio of 90% or more (almost completely withered)) | 0 (Herbicidal ratio of 5% or lower (almost no effect)) | 1 (Herbicidal ratio of 5% or higher and lower than 20%) | 5 (Herbicidal ratio of 90% or more (almost completely withered)) | 0 (Herbicidal ratio of 5% or lower (almost no effect)) | 0 (Herbicidal ratio of 5% or lower (almost no effect)) | 0 (Herbicidal ratio of 5% or lower (almost no effect)) | 0 (Herbicidal ratio of 5% or lower (almost no effect)) | 0 (Herbicidal ratio of 5% or lower (almost no effect)) | 5 (Herbicidal ratio of 90% or more (almost completely withered)) | 5 (Herbicidal ratio of 90% or more (almost completely withered)) | 4 (Herbicidal ratio of 70% or higher and lower than 90%) | 3 (Herbicidal ratio of 40% or higher and lower than 70%) | 4 (Herbicidal ratio of 70% or higher and lower than 90%) | –
CON=C(C)CC1CC(O)=C(c2c(C)cc(-c3ccccc3)cc2OC)C1=O (centres unmarked) [6-099] | 5 (Herbicidal ratio of 90% or more (almost completely withered)) | 5 (Herbicidal ratio of 90% or more (almost completely withered)) | 5 (Herbicidal ratio of 90% or more (almost completely withered)) | – | – | – | – | – | – | – | – | 3 (Herbicidal ratio of 40% or higher and lower than 70%) | 5 (Herbicidal ratio of 90% or more (almost completely withered)) | 5 (Herbicidal ratio of 90% or more (almost completely withered)) | 4 (Herbicidal ratio of 70% or higher and lower than 90%) | 5 (Herbicidal ratio of 90% or more (almost completely withered)) | Herbicidal effect grade, I: Avena fatua [4]: 5 (Herbicidal ratio of 90% or more (almost completely withered)); Herbicidal effect grade, K: Lolium multiflorum Lam. [5]: 5 (Herbicidal ratio of 90% or more (almost completely withered)); Herbicidal effect grade, L: Apera spica-venti [6]: 5 (Herbicidal ratio of 90% or more (almost completely withered)); Herbicidal effect grade, N: Amaranthus retroflexus [7]: 5 (Herbicidal ratio of 90% or more (almost completely withered)); Effect on crop grade, d: soybean [8]: 0 (Herbicidal ratio of 5% or lower (almost no effect)); Effect on crop grade, b: directly sowed rice plant [9]: 5 (Herbicidal ratio of 90% or more (almost completely withered)); Effect on crop grade, e: wheat [10]: 5 (Herbicidal ratio of 90% or more (almost completely withered)); Effect on crop grade, g: rapeseed [11]: 5 (Herbicidal ratio of 90% or more (almost completely withered))
